Entries after “also recorded” stand apart in the source; their conditions may differ.
Tests used:
[1] = target: T1, ASGR (Mus musculus, UniProt P24721+P34927); assay: Hepatocyte binding test with 125I-labeled ligands, Scatchard analysis; settings: mouse hepatocytes, 4° C., 2 hours
T1 construct: endogenous in cells; host or cells: primary hepatocytes from C57BL/6 mice (7W, male)
T1 sequence (P34927 1-284): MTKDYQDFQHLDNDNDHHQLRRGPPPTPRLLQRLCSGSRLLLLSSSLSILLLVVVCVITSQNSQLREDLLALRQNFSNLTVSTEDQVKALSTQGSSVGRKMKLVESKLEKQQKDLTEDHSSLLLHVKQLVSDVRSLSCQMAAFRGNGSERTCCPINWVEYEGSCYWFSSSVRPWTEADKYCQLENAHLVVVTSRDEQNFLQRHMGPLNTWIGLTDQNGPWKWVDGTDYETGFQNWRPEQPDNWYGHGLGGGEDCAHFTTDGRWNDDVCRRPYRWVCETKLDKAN
T1 sequence (P24721 1-301): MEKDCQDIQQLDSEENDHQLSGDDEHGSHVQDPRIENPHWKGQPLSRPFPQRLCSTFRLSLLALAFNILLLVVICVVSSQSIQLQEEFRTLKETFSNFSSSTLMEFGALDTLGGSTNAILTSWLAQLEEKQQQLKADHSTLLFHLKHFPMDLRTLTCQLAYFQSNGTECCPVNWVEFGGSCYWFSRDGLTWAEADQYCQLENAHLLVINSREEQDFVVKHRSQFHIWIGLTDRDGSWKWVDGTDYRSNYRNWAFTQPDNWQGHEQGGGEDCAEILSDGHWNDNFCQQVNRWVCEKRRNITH
Procedure: The test for binding of a modified product to hepatocytes was conducted using mouse-separated hepatocytes prepared by the collagenase reflux method which is a modification of the method of Berry et al. (M. N. Berry et al., J. Cell Biol., 43, 506-520 (1969)). That is, seven mice (C57BL/6, 7W, male) were refluxed with a collagenase (type I, supplied by Wako Pure Chemical Industries, Ltd.) and each liver thereof was then severed. Each liver was filtered using a cell filter. Hepatocytes were then collected through centrifugation at a low rate (50 g×1 min), and incubated for from 1 to 4 hours in a D-MEM medium containing 10% FBS (supplied by Gibco, containing 100 U/ml of penicillin, 100 μg/ml of streptomycin and 50 μg/ml of gentamicin) using a tissue culture dish of 150 mm (supplied by Iwaki Garasu K.K.). […]
The hepatocyte binding test was conducted by the method of Chang et al. (T. Chang et al., BBA 942. 57-64 (1988)). […] Thereafter, the radioactivity by the non-specific binding was subtracted from the radioactivity of 0.8 ml of 1 ml of the 0.1 N NaOH solution containing 0.5% SDS, and the radioactivity of the total amount thereof was calculated from the above-obtained value. The thus-calculated value was defined as an amount of a bound fraction. […] The total protein amount of the cells was calculated by the Lorry method using 0.1 ml of the solution. […]

[2] = tested on: mouse-separated hepatocytes; assay: Uptake of 125I-labeled modified product into hepatocytes; assay type: cell-based; settings: 24 nM, 37° C.
Procedure: The test for uptake into hepatocytes was also conducted according to the method of Chang et al (T. Chang et al., BBA 942. 57-64 (1988)). The cells which were approximately in the almost confluent state were washed once with a D-MEM medium (pH 7.4) containing 0.1% BSA and 10 mM Hepes, and the buffer was added thereto. The mixture was incubated in 5% CO2 at 37° C. for 30 minutes. […] On the other hand, the non-specific uptake was conducted by adding 100 mM N-acetylgalactosamine in each of the labeled solutions. Each plate incubated was moved on an ice bath after the reaction. A part of the medium was sampled, and a D-PBS solution (free from Ca^2+ and Mg^2+) containing 20 mM EGTA cooled at 4° C. was added thereto. The mixture was allowed to stand for 5 minutes. This washing was repeated twice. Further, the plate was washed once with a D-PBS solution (free from Ca^2+ and Mg^2+) cooled, and then allowed to stand at −20° C. for 30 minutes or more. The radioactivity by the non-specific binding was subtracted from the radioactivity of 0.8 ml of 1 ml of the 0.1 N NaOH solution containing 0.5% SDS in each well, and the radioactivity of the total amount thereof was calculated from the above-obtained value. The thus-calculated value was defined as an amount of an uptake fraction. Meanwhile, a value obtained by subtracting the radioactivity by the non-specific degradation from the radioactivity of the total trichloroacetic acid-soluble fraction in the medium was defined as an amount of a degradation fraction. The uptake tast was conducted with each point of n=3. The total protein amount of the cells was calculated by the Lorry method with respect to 0.1 ml of the solution.

Molecule | dissociation constant (Kd1) of high affinity site [1] | time to saturation of uptake [2] | degradation component ([2]; 0-4 hours) | uptake component in hepatocytes ([2]; 0-4 hours)
CC(C)(C)OC(=O)NC(Cc1ccc(O)cc1)C(=O)NCCCCCC(=O)NC(CCC(=O)NC(CCC(=O)NCCOCCOCCOC1OC(CO)C(O)C(O)C1O)C(=O)NCCOCCOCCOC1OC(CO)C(O)C(O)C1O)C(=O)NCCOCCOCCOC1OC(CO)C(O)C(O)C1O (centres unmarked) [(Gal)3-Tyr-Boc] | in the order level of multi-ten nM | – | – | –
CC(=O)NC1C(OCCOCCOCCNC(=O)CCC(NC(=O)CCC(NC(=O)CCCCCNC(=O)C(Cc2ccc(O)cc2)NC(=O)OC(C)(C)C)C(=O)NCCOCCOCCOC2OC(CO)C(O)C(O)C2NC(C)=O)C(=O)NCCOCCOCCOC2OC(CO)C(O)C(O)C2NC(C)=O)OC(CO)C(O)C1O (centres unmarked) [(GalNAc)3-Tyr-Boc] | in the order level of multi-ten nM; also recorded: lower than that of (Gal)3-Tyr-Boc | – | – | –
ASOR: asialoorosomucoid produced from human orosomucoid, natural ligand of ASGR | – | 1 h | gradually increased with the lapse of time | observed after 30 minutes of the incubation
